Read-outs that look alike come from different tables or passages of the source.
Columns and labels:
Format in all cases: in vitro ADME
[1] = system: sandwich-cultured dog hepatocytes (SCDH); assay: Hepatobiliary disposition in sandwich-cultured dog hepatocytes (SCDH)
Excerpt: (§1) The following studies have been conducted: (a) in vitro drug protein binding, transporter (organic anion transporting polypeptide [OATP], P-glycoprotein [P-gp], breast cancer-related protein [BCRP], and multiple drug resistance protein 1 [MDR1]), and cytochrome P-450 enzyme assays to investigate absorption, distribution, and excretion; (b) in vivo MGL-3196 rat and dog oral PK and bioavailability studies; (c) in vivo ^14C-MGL-3196 rat and dog oral pharmacokinetics, absorption, excretion, and tissue distribution by quantitative whole-body autoradiography (QWBA) studies; and (d) liver disposition of MGL-3196 using an in vitro sandwiched hepatocyte model system (B-CLEAR® technology) in dog (SCDH) and human (SCHH) hepatocytes.
Parameters determined: • Bile Accumulation=Total Accumulationplus(+)Buffer−Cellular AccumulationMinus(−)Buffer
[formula] • AUC=(Incubation Time)*(Analyte ConcentrationMedia) • In vitro biliary clearance:
[formula] • (Kp ratio reflects the extent of MGL-3196 accumulation in hepatocyte to the total MGL-3196 concentration in the buffer, outside of the hepatocyte).
MGL-3196 and its metabolite, MGL-3196-M1 (M1), were evaluated in sandwich-cultured human hepatocytes (SCHH) to evaluate the effects of temperature and concentration on total accumulation. Incubations were performed in presence of 4% bovine serum albumin (BSA) for 20 minutes at 37° C. and 4° C. across multiple concentrations (3, 10, 30, and 100 μM). Following the hepatic accumulation study, a species comparison of the hepatobiliary disposition of MGL-3196 (30 μM) and its metabolite, M1, was evaluated in SCHH and sandwich-cultured dog hepatocytes (SCDH) in the presence of 4% BSA.

CYP2C9 = CYP2C9 (Homo sapiens, UniProt P11712); assay: In vitro Cytochrome P-450 enzyme assay, CYP2C9; conditions: for IC50: read-out: Inhibitor of: CYP2C9, IC50
CYP2C8 = molecular target: T1, CYP2C8 (Homo sapiens, UniProt P10632); assay: In vitro Cytochrome P-450 enzyme assay, CYP2C8; conditions: for IC50: read-out: Inhibitor of: CYP2C8, IC50
T1 sequence (P10632 1-490): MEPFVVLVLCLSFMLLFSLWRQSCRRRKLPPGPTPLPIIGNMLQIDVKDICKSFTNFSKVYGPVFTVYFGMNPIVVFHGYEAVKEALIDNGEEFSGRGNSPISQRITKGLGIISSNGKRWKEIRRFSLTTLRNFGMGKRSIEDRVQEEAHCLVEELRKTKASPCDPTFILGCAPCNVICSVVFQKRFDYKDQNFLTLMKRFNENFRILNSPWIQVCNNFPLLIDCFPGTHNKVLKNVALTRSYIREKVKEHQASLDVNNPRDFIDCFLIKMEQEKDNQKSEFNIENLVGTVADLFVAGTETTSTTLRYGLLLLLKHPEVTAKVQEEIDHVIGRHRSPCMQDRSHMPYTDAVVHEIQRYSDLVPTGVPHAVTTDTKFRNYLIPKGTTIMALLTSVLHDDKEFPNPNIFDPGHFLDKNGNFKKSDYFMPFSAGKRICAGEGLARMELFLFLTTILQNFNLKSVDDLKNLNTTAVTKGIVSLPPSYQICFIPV
Excerpt: as §1

OATP1B3 = molecular target: T2, OATP1B3 (Homo sapiens, UniProt Q9NPD5); assay: In vitro drug transporter assay, OATP1B3
T2 sequence (Q9NPD5 1-702): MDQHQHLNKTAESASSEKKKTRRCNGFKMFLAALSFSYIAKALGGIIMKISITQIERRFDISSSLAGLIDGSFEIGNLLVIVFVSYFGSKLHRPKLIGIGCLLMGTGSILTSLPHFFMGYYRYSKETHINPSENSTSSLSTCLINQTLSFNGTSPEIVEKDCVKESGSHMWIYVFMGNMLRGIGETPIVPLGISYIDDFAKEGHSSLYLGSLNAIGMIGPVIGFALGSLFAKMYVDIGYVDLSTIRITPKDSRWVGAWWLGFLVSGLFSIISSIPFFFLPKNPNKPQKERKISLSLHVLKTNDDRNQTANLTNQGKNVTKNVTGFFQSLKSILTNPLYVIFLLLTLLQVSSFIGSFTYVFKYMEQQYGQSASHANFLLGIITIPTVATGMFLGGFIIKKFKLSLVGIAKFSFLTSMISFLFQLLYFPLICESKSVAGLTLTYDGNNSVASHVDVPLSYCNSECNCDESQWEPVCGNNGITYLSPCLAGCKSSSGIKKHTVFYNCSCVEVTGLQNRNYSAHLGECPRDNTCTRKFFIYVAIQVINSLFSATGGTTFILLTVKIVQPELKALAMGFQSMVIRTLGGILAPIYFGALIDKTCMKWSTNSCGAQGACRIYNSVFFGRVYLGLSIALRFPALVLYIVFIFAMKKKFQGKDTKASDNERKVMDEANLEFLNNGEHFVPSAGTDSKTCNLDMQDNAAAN
Excerpt: as §1

CYP3A4/5 = assay: In vitro Cytochrome P-450 enzyme assay, CYP3A4/5
CYP2B6 = molecular target: T3, CYP2B6 (Homo sapiens, UniProt P20813); assay: In vitro Cytochrome P-450 enzyme assay, CYP2B6
T3 sequence (P20813 1-491): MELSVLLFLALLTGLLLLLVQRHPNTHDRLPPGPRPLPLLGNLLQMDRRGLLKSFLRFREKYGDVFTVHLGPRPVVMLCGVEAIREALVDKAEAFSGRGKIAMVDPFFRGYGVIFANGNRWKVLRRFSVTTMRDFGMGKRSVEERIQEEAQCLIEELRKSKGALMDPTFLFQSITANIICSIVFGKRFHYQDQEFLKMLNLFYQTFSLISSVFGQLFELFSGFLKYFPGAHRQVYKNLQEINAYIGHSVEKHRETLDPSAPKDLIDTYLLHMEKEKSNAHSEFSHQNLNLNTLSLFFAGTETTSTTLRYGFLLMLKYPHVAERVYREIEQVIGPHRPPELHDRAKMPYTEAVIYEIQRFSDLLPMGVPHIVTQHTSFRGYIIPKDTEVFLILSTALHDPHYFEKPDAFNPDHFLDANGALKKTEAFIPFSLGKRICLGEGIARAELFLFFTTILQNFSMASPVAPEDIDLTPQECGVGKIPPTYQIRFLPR
Excerpt: as §1

CYP2D6 = CYP2D6 (Homo sapiens, UniProt P10635); assay: In vitro Cytochrome P-450 enzyme assay, CYP2D6
Excerpt: as §1

[2] = SCDH, 20 min exposure to MGL-3196 30 μM, 4% BSA

Chain of CYP2C9 (P11712 whole entry): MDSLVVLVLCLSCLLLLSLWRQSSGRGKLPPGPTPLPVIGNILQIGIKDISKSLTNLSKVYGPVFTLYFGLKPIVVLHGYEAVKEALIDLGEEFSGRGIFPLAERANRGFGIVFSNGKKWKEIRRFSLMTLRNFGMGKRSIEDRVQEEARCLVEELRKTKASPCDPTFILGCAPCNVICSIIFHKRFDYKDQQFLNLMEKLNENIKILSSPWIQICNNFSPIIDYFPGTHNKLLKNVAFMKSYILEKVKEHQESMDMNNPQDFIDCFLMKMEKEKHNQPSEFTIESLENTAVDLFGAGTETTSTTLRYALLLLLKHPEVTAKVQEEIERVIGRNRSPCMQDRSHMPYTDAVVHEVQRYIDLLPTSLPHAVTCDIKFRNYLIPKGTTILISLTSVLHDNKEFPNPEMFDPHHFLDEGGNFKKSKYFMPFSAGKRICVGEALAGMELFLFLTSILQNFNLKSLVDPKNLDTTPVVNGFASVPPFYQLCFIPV
Chain of CYP2D6 (P10635 whole entry): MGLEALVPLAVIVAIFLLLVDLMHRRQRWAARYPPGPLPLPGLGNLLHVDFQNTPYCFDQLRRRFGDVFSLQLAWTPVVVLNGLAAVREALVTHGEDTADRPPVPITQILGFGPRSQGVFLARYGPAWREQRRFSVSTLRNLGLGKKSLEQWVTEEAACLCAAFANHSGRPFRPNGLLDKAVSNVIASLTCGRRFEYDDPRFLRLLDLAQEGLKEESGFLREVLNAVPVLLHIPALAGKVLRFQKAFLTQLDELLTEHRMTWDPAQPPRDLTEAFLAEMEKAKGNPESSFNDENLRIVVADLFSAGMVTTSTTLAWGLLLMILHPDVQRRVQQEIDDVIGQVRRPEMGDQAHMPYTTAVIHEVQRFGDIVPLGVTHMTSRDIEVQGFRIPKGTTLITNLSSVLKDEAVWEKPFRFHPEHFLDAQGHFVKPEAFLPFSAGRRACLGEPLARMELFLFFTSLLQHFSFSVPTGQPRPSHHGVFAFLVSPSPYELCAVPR

CC(C)c1cc(Oc2c(Cl)cc(-n3nc(C#N)c(=O)[nH]c3=O)cc2Cl)n[nH]c1=O [MGL-3196, 2-(3,5-dichloro-4-((5-isopropyl-6-oxo-1,6-dihydropyridazin-3-yl)oxy)phenyl)-3,5-dioxo-2,3,4,5-tetrahydro-1,2,4-triazine-6-carbonitrile]
Total accumulation in SCDH lower than in SCHH ([1]; 30 μM, 20-minute exposure): ~81% | biliary clearance estimates lower in dog than human hepatocytes ([1]; SCDH vs SCHH): ~46% | BEI (Biliary Excretion Index) [1, 2]: 48.7% | Bile Acc. [1, 2]: 86.2 pmol/mg | Cellular Acc. [1, 2]: 80.3 pmol/mg | ClBiliary (in vitro biliary clearance) [1, 2]: 0.784 mL/min/kg | ICC (intracellular concentration) [1, 2]: 10.4 µM | Kp [1, 2]: 0.348 Ratio | Total Acc. [1, 2]: 167 pmol/mg | Substrate for: CYP2C9 (CYP2C9): CYP2C9; | IC50 (CYP2C9): 22 µM | Substrate for: CYP2C8 (CYP2C8): CYP2C8; | IC50 (CYP2C8): 0.9 µM | Substrate for: OATP1B3 (OATP1B3): OATP1B3; | Inhibitor of: OATP1B3, % inhibition (OATP1B3; @ 10 uM Pravastatin): OATP1B3 (57% @ 10 uM Pravastatin) | Inhibitor of: CYP3A4/5 (CYP3A4/5): not an inhibitor | Inhibitor of: CYP2B6 (CYP2B6): not an inhibitor | Inhibitor of: CYP2D6 (CYP2D6): not an inhibitor

CC(CO)c1cc(Oc2c(Cl)cc(-n3nc(C#N)c(=O)[nH]c3=O)cc2Cl)n[nH]c1=O (centres unmarked) [MGL-3623]
Cellular Acc. [1, 2]: BLQ | PIS (post incubation supernatant, cell culture media) [1, 2]: BLQ | Total Acc. [1, 2]: BLQ | IC50 (CYP2C9; range given jointly for CYP2B6, CYP2C9, CYP2C19, weak): 24 to 35 µM | Substrate for: CYP2C8 (CYP2C8): CYP 2C8 | IC50 (CYP2C8): 6.1 µM | Substrate for: OATP1B3 (OATP1B3): OATP1B3 | IC50 (OATP1B3; weak, read-out: Inhibitor of: OATP1B3, IC50): 22.6 µM | IC50 (CYP3A4/5; human, weak, read-out: Inhibitor of: CYP3A4/5, IC50): 35 µM | IC50 (CYP2B6; range given jointly for CYP2B6, CYP2C9, CYP2C19, weak, read-out: Inhibitor of: CYP2B6, IC50): 24 to 35 µM | IC50 (CYP2D6; read-out: Inhibitor of: CYP2D6, IC50): > 50 µM

Reference: US11090308B2, “Methods of treating liver disorders or lipid disorders with a THR-beta agonist” (Madrigal Pharmaceuticals, Inc., priority 2016, dated 2021)
